Measurements published in patent US20100298141A1, “SUBSTITUTED PYRIDINE N-OXIDE HERBICIDES” (E. I. DU PONT DE NEMOURS AND COMPANY, priority 2007, published 2010).

Legend:
mustard = test: Test F preemergence test; format: in vivo, Brassica nigra; settings: scale 0 to 100
Summary of the method: (§1)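 Test chemicals in a non-phytotoxic solvent mixture containing a surfactant were applied preemergence to sown seeds or postemergence to sugarcane plants. Treated plants and controls were held in a greenhouse for 14 to 21 days, then visually evaluated against controls.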

bermudagrass = test: Test F preemergence test; format: in vivo, Cynodon dactylon; settings: scale 0 to 100
Summary of the method: as §1

blackgrass = test: Test C pre-/postemergence test; format: in vivo, Alopecurus myosuroides; settings: for Plant response rating, Blackgrass: 31 g ai/ha, scale 0 to 100 (0 no effect, 100 complete control); for Plant response rating (0 to 100), Blackgrass: 250 g ai/ha
Summary of the method: (§2)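 Compounds in a non-phytotoxic solvent with surfactant applied preemergence to seeded pots and, at the same time, postemergence to plants 2–18 cm tall (1- to 4-leaf stage). Paddy tests: pots flooded to 3 cm, compound applied into the water, depth held throughout.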

southern sandbur = test: Test F preemergence test; format: in vivo, Cenchrus echinatus; settings: scale 0 to 100
Summary of the method: as §1

goosegrass = test: Test F preemergence test; format: in vivo, Eleusine indica; settings: scale 0 to 100
Summary of the method: as §1

kochia = test: Test F preemergence test; format: in vivo, Kochia scoparia; settings: scale 0 to 100
Summary of the method: as §1

Italian ryegrass = test: Test F preemergence test; format: in vivo, Lolium multiflorum; settings: scale 0 to 100
Summary of the method: as §1

broadleaf signalgrass = test: Test F preemergence test; format: in vivo, Brachiaria platyphylla; settings: scale 0 to 100
Summary of the method: as §1

Surinam grass = test: Test F preemergence test; format: in vivo, Brachiaria decumbens; settings: scale 0 to 100
Summary of the method: as §1

barnyardgrass = test: Test F preemergence test; format: in vivo, Echinochloa crus-galli; settings: scale 0 to 100
Summary of the method: as §1

purple nutsedge = test: Test F preemergence test; format: in vivo, Cyperus rotundus; settings: scale 0 to 100
Summary of the method: as §1

common ragweed = test: Test F preemergence test; format: in vivo, Ambrosia elation; settings: scale 0 to 100
Summary of the method: as §1

quackgrass = test: Test F preemergence test; format: in vivo, Elytrigia repens; settings: scale 0 to 100
Summary of the method: as §1

large crabgrass = test: Test F preemergence test; format: in vivo, Digitaria sanguinalis; settings: scale 0 to 100
Summary of the method: as §1

Russian thistle = test: Test C pre-/postemergence test; format: in vivo, Salsola kali; settings: Preemergence; for Russian Thistle plant response rating: 62 g ai/ha, scale 0 to 100; for Plant response rating, Russian Thistle: 31 g ai/ha, scale 0 to 100 (0 no effect, 100 complete control)
Summary of the method: as §2

corn = test: Test C pre-/postemergence test; format: in vivo, Zea mays; settings: for Plant response rating, Corn: 31 g ai/ha, scale 0 to 100 (0 no effect, 100 complete control); for Plant response rating (0 to 100), Corn: 250 g ai/ha
Summary of the method: as §2

woolly cupgrass = test: Test C pre-/postemergence test; format: in vivo, Eriochloa villosa; settings: Preemergence; for Cupgrass, Woolly plant response rating: 62 g ai/ha, scale 0 to 100; for Plant response rating, Cupgrass, Woolly: 31 g ai/ha, scale 0 to 100 (0 no effect, 100 complete control)
Summary of the method: as §2

[1] = 62 g ai/ha, Preemergence, scale 0 to 100
[2] = preemergence, 125 g ai/ha, scale 0 (no effect) to 100 (complete control)

Cc1cc[n+]([O-])c([S+]([O-])Cc2c(C(F)(F)F)nn(C)c2Cl)c1 (racemic) [Compound 20]
Plant response rating, Black Mustard (mustard; 8 g ai/ha, preemergence): 0 | Black Mustard plant response rating (mustard; 62 g ai/ha, Preemergence): 90 | Plant response rating, Black Mustard (mustard; Preemergence, 16 g ai/ha): 50 | Plant response rating, Black Mustard (mustard; Preemergence, 31 g ai/ha): 60 | Plant response rating, Bermudagrass (bermudagrass; 8 g ai/ha, preemergence): 15 | Bermudagrass plant response rating (bermudagrass; 62 g ai/ha, Preemergence): 50 | Plant response rating, Bermudagrass (bermudagrass; Preemergence, 16 g ai/ha): 20 | Plant response rating, Bermudagrass (bermudagrass; Preemergence, 31 g ai/ha): 50 | Blackgrass plant response rating (blackgrass; [1]): 98 | Plant response rating, Blackgrass (blackgrass; Preemergence): 70 | Plant response rating (0 to 100), Blackgrass (blackgrass; Preemergence): 100 | Blackgrass plant response rating (blackgrass; [2]): 100 | Plant response rating, Sandbur (southern sandbur; 8 g ai/ha, preemergence): 0 | Plant response rating, Sandbur (southern sandbur; 16 g ai/ha, preemergence): 0 | Sandbur plant response rating (southern sandbur; 62 g ai/ha, Preemergence): 75 | Plant response rating, Sandbur (southern sandbur; Preemergence, 31 g ai/ha): 60 | Plant response rating, Goosegrass (goosegrass; 8 g ai/ha, preemergence): 0 | Goosegrass plant response rating (goosegrass; 62 g ai/ha, Preemergence): 75 | Plant response rating, Goosegrass (goosegrass; Preemergence, 16 g ai/ha): 15 | Plant response rating, Goosegrass (goosegrass; Preemergence, 31 g ai/ha): 60 | Plant response rating, Kochia (kochia; 8 g ai/ha, preemergence): 0 | Kochia plant response rating (kochia; 62 g ai/ha, Preemergence): 50 | Plant response rating, Kochia (kochia; Preemergence, 16 g ai/ha): 0 | Plant response rating, Kochia (kochia; Preemergence, 31 g ai/ha): 0 | Plant response rating, Ryegrass, Italian (Italian ryegrass; 8 g ai/ha, preemergence): 0 | Ryegrass, Italian plant response rating (Italian ryegrass; 62 g ai/ha, Preemergence): 65 | Plant response rating, Ryegrass, Italian (Italian ryegrass; Preemergence, 16 g ai/ha): 10 | Plant response rating, Ryegrass, Italian (Italian ryegrass; Preemergence, 31 g ai/ha): 35 | Plant response rating, Signalgrass (broadleaf signalgrass; 8 g ai/ha, preemergence): 50 | Plant response rating, Signalgrass (broadleaf signalgrass; 16 g ai/ha, preemergence): 35 | Signalgrass plant response rating (broadleaf signalgrass; 62 g ai/ha, Preemergence): 75 | Plant response rating, Signalgrass (broadleaf signalgrass; Preemergence, 31 g ai/ha): 65 | Plant response rating, Surinam Grass (Surinam grass; 8 g ai/ha, preemergence): 0 | Plant response rating, Surinam Grass (Surinam grass; 16 g ai/ha, preemergence): 0 | Surinam Grass plant response rating (Surinam grass; 62 g ai/ha, Preemergence): 65 | Plant response rating, Surinam Grass (Surinam grass; Preemergence, 31 g ai/ha): 60 | Plant response rating, Barnyardgrass (barnyardgrass; 8 g ai/ha, preemergence): 0 | Barnyardgrass plant response rating (barnyardgrass; 62 g ai/ha, Preemergence): 90 | Plant response rating, Barnyardgrass (barnyardgrass; Preemergence, 16 g ai/ha): 40 | Plant response rating, Barnyardgrass (barnyardgrass; Preemergence, 31 g ai/ha): 80 | Plant response rating, Purple Nutsedge (purple nutsedge; 8 g ai/ha, preemergence): 0 | Purple Nutsedge plant response rating (purple nutsedge; 62 g ai/ha, Preemergence): 25 | Plant response rating, Purple Nutsedge (purple nutsedge; Preemergence, 16 g ai/ha): 0 | Plant response rating, Purple Nutsedge (purple nutsedge; Preemergence, 31 g ai/ha): 0 | Plant response rating, Ragweed (common ragweed; 8 g ai/ha, preemergence): 0 | Ragweed plant response rating (common ragweed; 62 g ai/ha, Preemergence): 25 | Plant response rating, Ragweed (common ragweed; Preemergence, 16 g ai/ha): 0 | Plant response rating, Ragweed (common ragweed; Preemergence, 31 g ai/ha): 0 | Plant response rating, Quackgrass (quackgrass; 8 g ai/ha, preemergence): 0 | Quackgrass plant response rating (quackgrass; 62 g ai/ha, Preemergence): 60 | Plant response rating, Quackgrass (quackgrass; Preemergence, 16 g ai/ha): 0 | Plant response rating, Quackgrass (quackgrass; Preemergence, 31 g ai/ha): 0 | Plant response rating, Crabgrass, Large (large crabgrass; 8 g ai/ha, preemergence): 0 | Crabgrass, Large plant response rating (large crabgrass; 62 g ai/ha, Preemergence): 80 | Plant response rating, Crabgrass, Large (large crabgrass; Preemergence, 16 g ai/ha): 10 | Plant response rating, Crabgrass, Large (large crabgrass; Preemergence, 31 g ai/ha): 70 | Russian Thistle plant response rating (Russian thistle): 100 | Plant response rating, Russian Thistle (Russian thistle): 100 | Corn plant response rating (corn; [1]): 20 | Plant response rating, Corn (corn; Preemergence): 0 | Plant response rating (0 to 100), Corn (corn; Preemergence): 85 | Corn plant response rating (corn; [2]): 50 | Cupgrass, Woolly plant response rating (woolly cupgrass): 70 | Plant response rating, Cupgrass, Woolly (woolly cupgrass): 0 | Plant response rating (0 to 100), Cupgrass, Woolly (woolly cupgrass; 250 g ai/ha): 100

Cc1cc[n+]([O-])c(S(=O)(=O)C(Cl)c2c(C(F)(F)F)nn(C)c2Cl)c1 (racemic) [Compound 22]
Black Mustard plant response rating (mustard; 62 g ai/ha, Preemergence): 50 | Black Mustard plant response rating (mustard; 125 g ai/ha, preemergence): 80 | Plant response rating, Black Mustard (mustard; Preemergence, 16 g ai/ha): 0 | Plant response rating, Black Mustard (mustard; Preemergence, 31 g ai/ha): 20 | Bermudagrass plant response rating (bermudagrass; 62 g ai/ha, Preemergence): 80 | Bermudagrass plant response rating (bermudagrass; 125 g ai/ha, preemergence): 90 | Plant response rating, Bermudagrass (bermudagrass; Preemergence, 16 g ai/ha): 0 | Plant response rating, Bermudagrass (bermudagrass; Preemergence, 31 g ai/ha): 35 | Blackgrass plant response rating (blackgrass; [1]): 95 | Plant response rating, Blackgrass (blackgrass; Preemergence): 55 | Plant response rating (0 to 100), Blackgrass (blackgrass; Preemergence): 98 | Blackgrass plant response rating (blackgrass; [2]): 95 | Sandbur plant response rating (southern sandbur; 62 g ai/ha, Preemergence): 75 | Sandbur plant response rating (southern sandbur; 125 g ai/ha, preemergence): 98 | Plant response rating, Sandbur (southern sandbur; Preemergence, 31 g ai/ha): 65 | Goosegrass plant response rating (goosegrass; 62 g ai/ha, Preemergence): 80 | Goosegrass plant response rating (goosegrass; 125 g ai/ha, preemergence): 98 | Plant response rating, Goosegrass (goosegrass; Preemergence, 16 g ai/ha): 65 | Plant response rating, Goosegrass (goosegrass; Preemergence, 31 g ai/ha): 65 | Kochia plant response rating (kochia; 62 g ai/ha, Preemergence): 100 | Kochia plant response rating (kochia; 125 g ai/ha, preemergence): 98 | Plant response rating, Kochia (kochia; Preemergence, 16 g ai/ha): 98 | Plant response rating, Kochia (kochia; Preemergence, 31 g ai/ha): 100 | Ryegrass, Italian plant response rating (Italian ryegrass; 62 g ai/ha, Preemergence): 70 | Ryegrass, Italian plant response rating (Italian ryegrass; 125 g ai/ha, preemergence): 70 | Plant response rating, Ryegrass, Italian (Italian ryegrass; Preemergence, 16 g ai/ha): 0 | Plant response rating, Ryegrass, Italian (Italian ryegrass; Preemergence, 31 g ai/ha): 20 | Signalgrass plant response rating (broadleaf signalgrass; 62 g ai/ha, Preemergence): 60 | Signalgrass plant response rating (broadleaf signalgrass; 125 g ai/ha, preemergence): 80 | Plant response rating, Signalgrass (broadleaf signalgrass; Preemergence, 31 g ai/ha): 50 | Surinam Grass plant response rating (Surinam grass; 62 g ai/ha, Preemergence): 65 | Surinam Grass plant response rating (Surinam grass; 125 g ai/ha, preemergence): 90 | Plant response rating, Surinam Grass (Surinam grass; Preemergence, 31 g ai/ha): 0 | Barnyardgrass plant response rating (barnyardgrass; 62 g ai/ha, Preemergence): 75 | Barnyardgrass plant response rating (barnyardgrass; 125 g ai/ha, preemergence): 95 | Plant response rating, Barnyardgrass (barnyardgrass; Preemergence, 16 g ai/ha): 10 | Plant response rating, Barnyardgrass (barnyardgrass; Preemergence, 31 g ai/ha): 40 | Purple Nutsedge plant response rating (purple nutsedge; 62 g ai/ha, Preemergence): 50 | Purple Nutsedge plant response rating (purple nutsedge; 125 g ai/ha, preemergence): 60 | Plant response rating, Purple Nutsedge (purple nutsedge; Preemergence, 16 g ai/ha): 0 | Plant response rating, Purple Nutsedge (purple nutsedge; Preemergence, 31 g ai/ha): 15 | Ragweed plant response rating (common ragweed; 62 g ai/ha, Preemergence): 50 | Ragweed plant response rating (common ragweed; 125 g ai/ha, preemergence): 80 | Plant response rating, Ragweed (common ragweed; Preemergence, 16 g ai/ha): 0 | Plant response rating, Ragweed (common ragweed; Preemergence, 31 g ai/ha): 0 | Quackgrass plant response rating (quackgrass; 62 g ai/ha, Preemergence): 20 | Quackgrass plant response rating (quackgrass; 125 g ai/ha, preemergence): 60 | Plant response rating, Quackgrass (quackgrass; Preemergence, 16 g ai/ha): 0 | Plant response rating, Quackgrass (quackgrass; Preemergence, 31 g ai/ha): 10 | Crabgrass, Large plant response rating (large crabgrass; 62 g ai/ha, Preemergence): 70 | Crabgrass, Large plant response rating (large crabgrass; 125 g ai/ha, preemergence): 70 | Plant response rating, Crabgrass, Large (large crabgrass; Preemergence, 16 g ai/ha): 0 | Plant response rating, Crabgrass, Large (large crabgrass; Preemergence, 31 g ai/ha): 50 | Russian Thistle plant response rating (Russian thistle): 100 | Plant response rating, Russian Thistle (Russian thistle): 100 | Corn plant response rating (corn; [1]): 20 | Plant response rating, Corn (corn; Preemergence): 0 | Plant response rating (0 to 100), Corn (corn; Preemergence): 100 | Corn plant response rating (corn; [2]): 30 | Cupgrass, Woolly plant response rating (woolly cupgrass): 100 | Plant response rating, Cupgrass, Woolly (woolly cupgrass): 60
